Species: Rattus norvegicus
Assay: Open TG-GATES - Regimen: Single
Type: toxicity, organism-based, Sprague-Dawley
Design: regimen Single, gender Male, age 6 weeks
Details: in vivo, po, 0 mg/kg, route gavage, dose level Control; for APTT / Bas / Eos / Fbg / Hb / Ht / Lym / MCH / MCHC / MCV / Mono / Neu / PT / Plat / RBC / Ret / WBC: tissue Blood; for KIDNEY_L / KIDNEY_R / KIDNEY_TOTAL: tissue Kidney; for LIVER: tissue Liver; for A/G / ALP / ALT / AST / BUN / CRE / Ca / Cl / DBIL / GLC / IP / K / LDH / Na / PL / RALB / TBIL / TC / TG / TP / gamma-GTP: tissue Plasma

CN/C(=N/CCSCc1nc[nH]c1C)NC#N [CIMETIDINE] was tested, and the TERMINAL_BW (3 h) was 213.9 g, the APTT (3 h) was 18.4 s and the Bas (3 h) was 0%. It also gave an Eos (3 h) of 1%, a Fbg (3 h) of 217.6 mg/dL and a Hb (3 h) of 12.7 g/dL. For the same compound, the Ht (3 h) was 37.4%, the Lym (3 h) was 75.4% and the MCH (3 h) was 21.3 pg. For the same compound, the MCHC (3 h) was 34%, the MCV (3 h) was 62.5 fL and the Mono (3 h) was 3.2%. The Neu (3 h) was 19.2%, the PT (3 h) was 12.6 s and the Plat (3 h) was 139.7 x10_4/uL. For the same compound, the RBC (3 h) was 598.4 x10_4/ul, the Ret (3 h) was 7.9% and the WBC (3 h) was 95.7 x10_2/uL. It also gave a KIDNEY_L (3 h) of 1 g, a KIDNEY_R (3 h) of 1 g and a KIDNEY_TOTAL (3 h) of 2 g. The LIVER (3 h) was 10.1 g, the A/G (3 h) was 1.7 and the ALP (3 h) was 1080.4 IU/L. For the same compound, the ALT (3 h) was 37.4 IU/L, the AST (3 h) was 71.2 IU/L and the BUN (3 h) was 12.4 mg/dL. It also gave a CRE (3 h) of 0.3 mg/dL, a Ca (3 h) of 10.8 mg/dL and a Cl (3 h) of 102.6 meq/L. For the same compound, the DBIL (3 h) was 0.072 mg/dL, the GLC (3 h) was 189 mg/dL and the IP (3 h) was 8.8 mg/dL. The K (3 h) was 3.7 meq/L, the LDH (3 h) was 134.2 IU/L and the Na (3 h) was 140.8 meq/L. It also gave a PL (3 h) of 147.6 mg/dL, an RALB (3 h) of 3.4 g/dL and a TBIL (3 h) of 0.1 mg/dL. It also gave a TC (3 h) of 77.2 mg/dL, a TG (3 h) of 65 mg/dL and a TP (3 h) of 5.4 g/dL. The gamma-GTP (3 h) was 1.4 IU/L, the TERMINAL_BW (6 h) was 211.8 g and the APTT (6 h) was 19.8 s. For the same compound, the Bas (6 h) was 0%, the Eos (6 h) was 1% and the Fbg (6 h) was 219.2 mg/dL. For the same compound, the Hb (6 h) was 13.2 g/dL, the Ht (6 h) was 37.8% and the Lym (6 h) was 75.6%. The MCH (6 h) was 21.6 pg, the MCHC (6 h) was 34.7% and the MCV (6 h) was 62.2 fL. The Mono (6 h) was 3.4%, the Neu (6 h) was 18.8% and the PT (6 h) was 12.8 s. The Plat (6 h) was 127.2 x10_4/uL, the RBC (6 h) was 607.6 x10_4/ul and the Ret (6 h) was 8%. It also gave a WBC (6 h) of 107.6 x10_2/uL, a KIDNEY_L (6 h) of 1 g and a KIDNEY_R (6 h) of 1 g. It also gave a KIDNEY_TOTAL (6 h) of 1.9 g, an LIVER (6 h) of 9.5 g and an A/G (6 h) of 1.5. For the same compound, the ALP (6 h) was 902.6 IU/L, the ALT (6 h) was 38 IU/L and the AST (6 h) was 70.2 IU/L. It also gave a BUN (6 h) of 10.2 mg/dL, a CRE (6 h) of 0.4 mg/dL and a Ca (6 h) of 10.7 mg/dL. It also gave a Cl (6 h) of 101.6 meq/L, a DBIL (6 h) of 0.074 mg/dL and a GLC (6 h) of 195.4 mg/dL. For the same compound, the IP (6 h) was 9.7 mg/dL, the K (6 h) was 3.8 meq/L and the LDH (6 h) was 161.6 IU/L. For the same compound, the Na (6 h) was 140.6 meq/L, the PL (6 h) was 151.2 mg/dL and the RALB (6 h) was 3.3 g/dL. The TBIL (6 h) was 0.1 mg/dL, the TC (6 h) was 81.8 mg/dL and the TG (6 h) was 64.4 mg/dL. It also gave a TP (6 h) of 5.5 g/dL, a gamma-GTP (6 h) of 1.4 IU/L and a TERMINAL_BW (9 h) of 206.6 g. For the same compound, the APTT (9 h) was 17.6 s, the Bas (9 h) was 0% and the Eos (9 h) was 1%. The Fbg (9 h) was 222.6 mg/dL, the Hb (9 h) was 13.1 g/dL and the Ht (9 h) was 37.9%. The Lym (9 h) was 75.6%, the MCH (9 h) was 21.5 pg and the MCHC (9 h) was 34.6%. The MCV (9 h) was 62 fL, the Mono (9 h) was 3% and the Neu (9 h) was 19.2%. The PT (9 h) was 12.8 s, the Plat (9 h) was 128 x10_4/uL and the RBC (9 h) was 612 x10_4/ul. For the same compound, the Ret (9 h) was 7.6%, the WBC (9 h) was 93 x10_2/uL and the KIDNEY_L (9 h) was 0.9 g. It also gave a KIDNEY_R (9 h) of 0.9 g, a KIDNEY_TOTAL (9 h) of 1.8 g and an LIVER (9 h) of 8.7 g. It also gave an A/G (9 h) of 1.6, an ALP (9 h) of 842 IU/L and an ALT (9 h) of 30 IU/L. The AST (9 h) was 66.2 IU/L, the BUN (9 h) was 12.6 mg/dL and the CRE (9 h) was 0.3 mg/dL. For the same compound, the Ca (9 h) was 10.5 mg/dL, the Cl (9 h) was 102.2 meq/L and the DBIL (9 h) was 0.074 mg/dL. The GLC (9 h) was 189.2 mg/dL, the IP (9 h) was 10 mg/dL and the K (9 h) was 3.8 meq/L. The LDH (9 h) was 120.4 IU/L, the Na (9 h) was 140.8 meq/L and the PL (9 h) was 139 mg/dL. For the same compound, the RALB (9 h) was 3.3 g/dL, the TBIL (9 h) was 0.1 mg/dL and the TC (9 h) was 77.4 mg/dL. It also gave a TG (9 h) of 47.8 mg/dL, a TP (9 h) of 5.4 g/dL and a gamma-GTP (9 h) of 1.4 IU/L. For the same compound, the TERMINAL_BW (24 h) was 224.9 g, the APTT (24 h) was 18.8 s and the Bas (24 h) was 0.2%. For the same compound, the Eos (24 h) was 0.8%, the Fbg (24 h) was 218.6 mg/dL and the Hb (24 h) was 13.5 g/dL. It also gave a Ht (24 h) of 40%, a Lym (24 h) of 81.4% and an MCH (24 h) of 21.6 pg. The MCHC (24 h) was 33.8%, the MCV (24 h) was 63.8 fL and the Mono (24 h) was 3%. The Neu (24 h) was 13.2%, the PT (24 h) was 12.1 s and the Plat (24 h) was 130.4 x10_4/uL. For the same compound, the RBC (24 h) was 627.6 x10_4/ul, the Ret (24 h) was 7.2% and the WBC (24 h) was 98.2 x10_2/uL. For the same compound, the KIDNEY_L (24 h) was 1 g, the KIDNEY_R (24 h) was 1 g and the KIDNEY_TOTAL (24 h) was 2 g. The LIVER (24 h) was 11 g, the A/G (24 h) was 1.6 and the ALP (24 h) was 959.8 IU/L. For the same compound, the ALT (24 h) was 36.8 IU/L, the AST (24 h) was 64 IU/L and the BUN (24 h) was 15.6 mg/dL. For the same compound, the CRE (24 h) was 0.4 mg/dL, the Ca (24 h) was 10.9 mg/dL and the Cl (24 h) was 101.6 meq/L. The DBIL (24 h) was 0.1 mg/dL, the GLC (24 h) was 223.8 mg/dL and the IP (24 h) was 7.7 mg/dL. For the same compound, the K (24 h) was 4 meq/L, the LDH (24 h) was 147.6 IU/L and the Na (24 h) was 140.2 meq/L. It also gave a PL (24 h) of 158.6 mg/dL, an RALB (24 h) of 3.5 g/dL and a TBIL (24 h) of 0.2 mg/dL. For the same compound, the TC (24 h) was 79.8 mg/dL, the TG (24 h) was 118.8 mg/dL and the TP (24 h) was 5.6 g/dL. For the same compound, the gamma-GTP (24 h) was 1.8 IU/L.

Source: ChEMBL document CHEMBL3885861, “Open TG-GATES”
